Assay results reported in publication PMC4569415, “Pro-Oxidant Activity of Amine-Pyridine-Based Iron Complexes Efficiently Kills Cancer and Cancer Stem-Like Cells” (PLoS ONE, 2015).
Counter-ions that a name gives are not always drawn.

Key:
Hemolytic assay = format: cell-based; conditions: human, erythrocyte suspension of fresh human blood (5% vol/vol)
Protocol: The hemolytic activity of the compounds at 100 μmol/L was evaluated by determining hemoglobin release from erythrocyte suspensions of fresh human blood (5% vol/vol) as described.

MCF-7 cells [1] = test: MTT cytotoxicity assay; format: cell-based, human; conditions: MTT, 48 h of compound exposure
Protocol: (§1) The cytotoxic activity of the compounds was determined by MTT reduction assay as described. Compounds were diluted in Milli-Q water to obtain 1 mmol/L stock solutions. Appropriate aliquots of these solutions were diluted in the corresponding cell culture medium to obtain the final working concentrations. Aliquots of 5000 1BR3G cells, 6000 MCF-7, 6000 PC-3 cells, 10 000 CAPAN-1 cells, 4000 MCF 10A cells, 4000 HMLE cells or 4000 CCD-18Co cells were seeded in 96-well plates, 24 h prior to the treatments. Hematological cell lines were seeded at 400 000 cells/mL. Cells were treated with the corresponding compound at concentrations ranging from 0 to 100 μmol/L for 48 h. Three replicates for each compound were used. The IC50 was established for each compound by standard non-linear regression and curve fitting using GraphPad Prism (Graph Pad software Inc., La Jolla, CA, USA).

CAPAN-1 cells [2] = test: MTT cytotoxicity assay; format: cell-based, human; conditions: MTT, 48 h of compound exposure
Protocol: as §1

JURKAT = test: MTT cytotoxicity assay; format: cell-based; conditions: Homo sapiens, 48 h of treatment
Protocol: as §1

1BR3G = test: MTT cytotoxicity assay; format: cell-based; conditions: Homo sapiens, 48 h of treatment, non malignant cells
Protocol: as §1

PC-3 = test: MTT cytotoxicity assay; format: cell-based; conditions: Homo sapiens, 48 h of treatment
Protocol: as §1

HMLE = test: MTT cytotoxicity assay; format: cell-based; conditions: Homo sapiens, 48 h of treatment, non malignant cells
Protocol: as §1

Z-138 = test: MTT cytotoxicity assay; format: cell-based; conditions: Homo sapiens, 48 h of treatment
Protocol: as §1

MCF-10A = test: MTT cytotoxicity assay; format: cell-based; conditions: Homo sapiens, 48 h of treatment, non malignant cells
Protocol: as §1

CCD-18Co = test: MTT cytotoxicity assay; format: cell-based; conditions: Homo sapiens, 48 h of treatment, non malignant cells
Protocol: as §1

CAPAN-1 cells [3] = test: Cellular labile iron pool with calcein-AM; format: cell-based, human; conditions: CAPAN-1, 100 μmol/L, 24 h
Protocol: The cellular labile iron pool was determined with calcein-AM. CAPAN-1 cells (125 000 cells/ well) were seeded in 24-well plates and incubated for 24 h. Then, cells were treated for 24 h with 10 μmol/L of compound 1, 2 or 5 at 37°C. In some experiments, cells were incubated for 2 h with 100 μmol/L of DFO or 100 μmol/L FeCl2. Cells exposed to the vehicle alone were used as a control. After treatments, cells were washed with PBS and incubated with calcein-AM (0.25 μmol/L) for 30 min at 37°C in the dark. Subsequently, cells were washed and collected with trypsin and the geometric mean fluorescence intensity of 10 000 cells was determined by flow cytometry as described.

MCF-7 and CAPAN-1 cells = test: MTT cell viability with modulators (QVD-Oph, FeCl2); format: cell-based, human; conditions: FeCl2 alone at 1, 10 or 100 μmol/L, 48 h
Protocol: as §1
Fig 4 Induction of caspase activity. (A) The indicated cell lines were treated for 48 h with compounds 1, 2 and 5 (10 μmol/L) and caspase 3/7 activity was measured as indicated in Materials and Methods. Bar charts show the fold increase in caspase activity relative to untreated (control) and represent the mean±SD from three independent experiments performed in triplicate. (B) MCF-7 and CAPAN-1 cells were treated for 48 h with the ligands (10 μM) in the absence (-) or presence (+) of the pan-caspase inhibitor QVD-Oph (20 μM) and cell viability was measured with the MTT assay. […] Data represents the mean ± SD of 3 independent experiments performed in triplicate. The differences between absence and presence of QVD-OPh treatment were statistically significant at * p<0.05, **p<0.01 and ***p<0.001.
Fig 9 Effects of iron on 1, 2 and 5 activity. (A) Effect of 2 h FeCl2 pre-incubation (FeCl2 p) (dotted line) or co-incubation (FeCl2 c) (dashed line) at 1, 10 or 100 μmol/L on the cytotoxicity of 2 (5 μmol/L) in MCF-7 and CAPAN-1 cells. FeCl2 alone was included as a control (solid line). Cell viability was determined after 48 h of treatment by the MTT assay. (B) Effect of FeCl2 pre-incubation or co-incubation (100 μmol/L) on the cytotoxicity of 2 (5 μmol/L), 1 and 5 (10 μmol/L). Cells treated with the ligands alone were included as a reference (control). (C) ROS induction in CAPAN-1 cells after 24 h treatment with 2 (10 μmol/L) alone, together with FeCl2 or after FeCl2 pre-incubation (at 100 μmol/L). Results are presented as a percentage of untreated cells and represent mean±SD of 3 independent experiments. *p < 0.05 versus control cells.

[4] = test system: CS-like HMLER-shEcad cells; test: MTT cytotoxicity assay in cancer stem-like cells; format: cell-based, human; conditions: 48 h
Protocol: as §1
(§2) Fig 2 Cell viability assay. (A) Cytotoxic activity of compounds 1, 2, and 5 against cancer cells. The indicated cell lines were treated for 48 h with ligands (10 μmol/L) and cell viability was measured with the MTT assay. Data represents the percentage of viable cells relative to untreated cells (control). (B) Cytotoxicity of doxorubicin and compounds 1, 2 and 5 against CS-like cells. CS-like HMLER-shEcad cells and non-CS-like HMLER isogenic parental cells were treated for 48 h with graded concentrations of doxorubicin, 1, 2 and 5. Cell viability was measured with the MTT assay. For each treatment, the percentage of viable cells relative to untreated cells is indicated. Data represents the mean±SD of 3 independent experiments performed in triplicate.

HMLER cells = test: MTT cytotoxicity assay in non-CS-like parental cells; format: cell-based; conditions: Homo sapiens, 48 h
Protocol: as §1, §2

MCF-7 cells [5] = test: Cellular labile iron pool with calcein-AM; format: cell-based, human; conditions: MCF-7

SMILES: CN(Cc1ccccn1)[C@H]1CCCC[C@@H]1N(C)Cc1ccccn1 [Compound 3]
- hemolysis at 100 µM (Hemolytic assay): 0%
- IC50 (MCF-7 cells [1]; Homo sapiens, MCF7): 40.6 ± 2.5 µM
- IC50 (CAPAN-1 cells [2]; Homo sapiens, CAPAN-1): 27.7 ± 2.9 µM
- IC50 (JURKAT): > 100 µM
- IC50 (1BR3G): 45 ± 1 µM
- IC50 (PC-3): 35 ± 4.2 µM
- IC50 (HMLE): 32.5 ± 3.8 µM
- IC50 (Z-138): 16.5 ± 1.4 µM
- IC50 (MCF-10A): 39.7 ± 2.9 µM
- IC50 (CCD-18Co): > 100 µM

SMILES: [Cl][Fe][Cl] [FeCl2, reference compound]
- calcein fluorescence intensity, % of control cells (CAPAN-1 cells [3]): 74.2±15.5%
- effect on cell viability (MCF-7 and CAPAN-1 cells): did not affect the viability

SMILES: COc1cccc2c1C(=O)c1c(O)c3c(c(O)c1C2=O)C[C@@](O)(C(=O)CO)C[C@@H]3O[C@H]1C[C@H](N)[C@H](O)[C@H](C)O1 [doxorubicin, reference compound]
- fold increase in IC50, HMLER-shECad vs HMLER [4]: ~ 3 fold
- IC50 ([4]; Homo sapiens): 300 ± 20 nM
- IC50 (HMLER cells): 100 ± 20 nM

SMILES: CC(=O)N(O)CCCCCNC(=O)CCC(=O)N(O)CCCCCNC(=O)CCC(=O)N(O)CCCCCN [DFO, deferoxaminemesylate salt, reference compound]
- calcein fluorescence increase after DFO incubation (MCF-7 cells [5]): 132.1±16.5%

SMILES: N.N.[Cl][Pt][Cl] [Cisplatin, reference compound]
- IC50 (MCF-7 cells [1]): 2.4 ± 0.4 µM
- IC50 (CAPAN-1 cells [2]): 2.2 ± 0.3 µM

SMILES: CN1CCN(C)CCN(Cc2ccccn2)CC1 [Compound 4]
- hemolysis at 100 µM (Hemolytic assay): 0%
- IC50 (MCF-7 cells [1]; Homo sapiens, MCF7): 88.5 ± 0.7 µM
- IC50 (CAPAN-1 cells [2]; Homo sapiens, CAPAN-1): 32 ± 10.4 µM
- IC50 (JURKAT): > 100 µM
- IC50 (1BR3G): 78 ± 8.5 µM
- IC50 (PC-3): > 100 µM
- IC50 (HMLE): 47.7 ± 4.5 µM
- IC50 (Z-138): 23.1 ± 1.8 µM
- IC50 (MCF-10A): > 100 µM
- IC50 (CCD-18Co): > 100 µM
